Values joined by “and” are separate entries in the source; they are usually repeats but may differ in a detail not shown here. Identical values can stand only once. Like-named read-outs stand apart in the source and are kept apart here.
Legend:
[1] = background art; cited from earlier work
[2] = system: Aβ1-40; experiment: Thioflavine T fluorometric assay of amyloid formation by Aβ1-40; assay type: biochemical; details: for % of amyloid Aβ1-40: amyloid remaining, 30 μg Aβ with 10-fold molar excess of peptide, 2 days, room temperature, 0.1M tris pH 7.6, Aβ alone = 100; for amyloid formed, as % of the amyloid detectable in the absence of inhibitor: 24 h, Aβ 1 mg/ml
[3] = target: Aβ1-42 (Homo sapiens, UniProt P05067); experiment: Thioflavine T fluorometric assay of amyloid formation by Aβ1-42; assay type: biochemical; details: for % of amyloid Aβ1-42: amyloid remaining, 30 μg Aβ with 10-fold molar excess of peptide, 2 days, room temperature, 0.1M tris pH 7.6, Aβ alone = 100
[4] = target: PrP106-126 (Homo sapiens, UniProt P04156); details: same concentration as iPrP-12aa
[5] = system: gelsolin amyloid (SEQ ID NO: 12); experiment: Fibril formation by the amyloidogenic peptide of gelsolin amyloid; assay type: biochemical; details: 1 mg/ml, 24 hours, molar ratio 1:5 or 1:20
Procedure: (§1) FIG. 8 is a bar graph showing the effect of anti-amyloid peptide 1 on the amyloid formation by Aβ and of peptides derived from the amyloidogenic sequence of gelsolin amyloid and amyloid A. Either β or the fifteen amino acid peptides containing the amyloidogenic sequence of gelsolin amyloid (SEQ ID NO: 12) and amyloid A (SEQ ID NO: 13) were incubated in a concentration of 1 mg/ml for 24 hours without and with anti-amyloid peptide 1 in a molar ratio of 1:5 or 1:20.

[6] = system: amyloid A (SEQ ID NO: 13); experiment: Fibril formation by the amyloidogenic peptide of amyloid A; assay type: biochemical; details: 1 mg/ml, 24 hours, molar ratio 1:5 or 1:20
Procedure: as §1

[7] = target: T1, Aβ (Homo sapiens, UniProt P05067); experiment: Redissolution of preformed Aβ fibrils by anti-amyloid peptide 1; assay type: biochemical; details: molar ratio 1:50 (Aβ:anti-amyloid peptide 1), 15 minutes to 24 hours
[8] = target: T1, Aβ; experiment: Aβ amyloid fibril formation in vitro (Aβ variant not named); assay type: biochemical; details: 50-fold molar excess over soluble amyloid monomers
[9] = system: Aβ1-40; experiment: Negative-staining electron microscopy of Aβ1-40 fibril formation and dissolution; assay type: biochemical; details: for effect on Aβ1-40 fibril formation by electron microscopy: Aβ1-40 2 mg/ml, 40-fold excess from the start, 6 days, 37° C.
[10] = Aggregation of the peptide incubated alone; assay type: physicochemical; details: for amyloid-like material formed by the peptide alone, electron microscopy: 6 days, same concentration as with Aβ
Procedure: Based on these criteria, an 11 amino acid peptide, called inhibitor of Aβ fibrillogenesis peptide (iAβ) was designed, which has a low probability of adopting a β-sheet conformation due to the presence of proline residues (FIG. 9). The circular dichroism spectrum of iAβ in aqueous solution was typical of unordered structures (FIG. 10). Samples of iAβ at different concentrations as well as samples incubated for several days have similar spectra (FIG. 10).
The inhibition of fibril formation and the dissolution of preformed fibrils by iAβ was also analyzed by negative-staining electron microscopy (FIGS. 15a -f). Aβ1-40 (2 mg/ml) preincubated for 6 days at 37° C. formed typical 8-10 nm unbranched fibrils (Castano et al., biochem. Biophys. Res. Commun. 141:782-789, 1986) (FIG. 15a).

[11] = target: Aβ1-42 fibrils (Homo sapiens, UniProt P05067); experiment: Dissolution of preformed Aβ1-42 fibrils, fluorometric quantitation; assay type: biochemical; details: 40-fold molar excess of iAβ, 24 h incubation
[12] = target: Aβ with heparan-sulfate proteoglycan (Homo sapiens, UniProt P05067); experiment: Heparan-sulfate proteoglycan-induced Aβ fibrillogenesis; assay type: biochemical; details: preliminary experiments
[13] = target: T2, Aβ1-40 with human plasma apolipoprotein E (Homo sapiens, UniProt P05067); experiment: Promotion of Aβ fibrillogenesis induced by apolipoprotein E, thioflavine T assay; assay type: biochemical; details: 30 μg Aβ1-40, 2.4 μg apoE, 1:10 (Aβ:iAβ), 24 h, room temperature
T2 construct: 30 μg of Aβ1-40 were incubated with or without 2.4 μg of human plasma apolipoprotein E; made in house; host or cells: Aβ1-40: chemical solid-phase synthesis
Procedure: Samples of Aβ alone or Aβ/apoE were incubated also with 1:10 (Aβ:iAβ) of the inhibitor. All the incubations were performed for 24 h at room temperature. Amyloid formation was evaluated by the thioflavine T fluorometric assay. The average of two different experiments is shown.

[14] = target: Aβ1-40 fibrils (Homo sapiens, UniProt P05067); experiment: Dissolution of preformed Aβ1-40 fibrils, fluorometric quantitation; assay type: biochemical
[15] = system: Aβ1-40; experiment: Aβ-iAβ binding by quenching of intrinsic Tyr10 fluorescence of Aβ
[16] = system: amyloid-A (AA) deposition; experiment: Experimental murine model of amyloid-A amyloidosis (AEF and silver nitrate), amyloid in spleen; assay type: in vivo, BALB/c mice
[17] = Kisilevsky et al., 1995; cited from earlier work

Aβ1-42, sequence (P05067 18-42): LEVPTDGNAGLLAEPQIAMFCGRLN
Aβ1-40, sequence (P05067 18-40): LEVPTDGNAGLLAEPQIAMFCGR
T1 sequence (P05067 672-711 limits assumed): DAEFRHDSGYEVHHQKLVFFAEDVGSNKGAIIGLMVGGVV
Aβ1-40 fibrils, sequence (P05067 672-711): as the sequence (P05067 672-711 limits assumed) above
Aβ with heparan-sulfate proteoglycan, sequence (P05067 672-711 limits assumed): as above

COc1cccc2c1C(=O)c1c(O)c3c(c(O)c1C2=O)C[C@@](O)(C(=O)CO)C[C@@H]3O[C@H]1C[C@H](N)[C@H](I)[C@H](C)O1 [IDOX, Anthracycline 4′-iodo-4′-deoxy-doxorubicin]
toxicity [1]: extremely toxic

Aβ18-21: short Aβ fragment (VFFA) [reference compound]
% of amyloid Aβ1-40 [2]: 105 ± 3.2% | % of amyloid Aβ1-42 [3]: 98.5 ± 5.3%

CP1: unrelated control peptide of 12 amino acids (VHVSEEGTEPA) [reference compound]
% of amyloid Aβ1-40 [2]: 98.4 ± 1.2% | effect on amyloid formation by PrP106-126 [4]: No significant effect | % of amyloid Aβ1-42 [3]: 101.3 ± 1.9%

CP2: control peptide (GYLTVAAVFRG) [reference compound]
% of amyloid Aβ1-40 [2]: 111.3 ± 4.1% | % of amyloid Aβ1-42 [3]: 125.3 ± 3.9%

CP3: control peptide (PADVPLAPRAVD) [reference compound]
% of amyloid Aβ1-40 [2]: 87.7 ± 2.0% | % of amyloid Aβ1-42 [3]: 94.4 ± 1.4%

Leu Val Phe Phe Ala [Aβ17-21, reference compound]
% of amyloid Aβ1-40 [2]: 89.2 ± 2.7% | % of amyloid Aβ1-42 [3]: 92.3 ± 3.4%

Pro-Phe-Phe [iAβ6]
% of amyloid Aβ1-40 [2]: 108.1 ± 7.9% | % of amyloid Aβ1-42 [3]: 88.9 ± 2.6%

anti-amyloid peptide 1: 15-amino acid anti-amyloid peptide (SRGDLPFFPVPIGDS)
inhibition of fibril formation of the gelsolin related amyloid peptide [5]: inhibits the fibril formation | inhibition of fibril formation of the amyloid-A peptide [6]: inhibits the fibril formation | dissolution of preformed Aβ fibrils [7]: Dissolution of preformed fibrils also occurred | inhibition of amyloid fibril formation [8]: 90%

control peptide: 12 residue non-related control peptide (VHVSEEGTEPEA) [reference compound]
effect on Aβ1-40 fibril formation by electron microscopy [9]: did not produce any effect | effect on amyloid formation by Aβ1-40 ([2]; FIGS. 12 and 13): did not alter amyloid formation | amyloid-like material formed by the peptide alone, electron microscopy [10]: formed no amyloid-like material | effect on amyloid formation by Aβ1-42 ([3]; FIG. 12): did not alter amyloid formation

iAβ1: shorter derivative of iAβ (RDLPFFPVD)
% of amyloid Aβ1-40 [2]: 55.2 ± 2.1% | % of amyloid Aβ1-42 [3]: 85.7 ± 11.6%

iAβ2: seven amino acid residue shorter derivative of iAβ (LPFFPVD)
% of amyloid Aβ1-40 [2]: 36.7 ± 4.8% | % of amyloid Aβ1-42 [3]: 61.3 ± 3.0%

iAβ3: shorter derivative of iAβ; valine inserted into the sequence of SEQ ID NO:18 (LPFFVD)
% of amyloid Aβ1-40 [2]: 90.1 ± 1.3% | % of amyloid Aβ1-42 [3]: 87.1 ± 6.1%

iAβ4: five residue derivative of iAβ; proline substituted for valine of Aβ 17-21, aspartic acid at the end (LPFFD)
% of amyloid Aβ1-40 [2]: 28.7 ± 1.7% | % of amyloid Aβ1-42 [3]: 45.4 ± 0.6%

iAβ5: shorter derivative of iAβ (LPFF)
% of amyloid Aβ1-40 [2]: 92.1 ± 1.3% | % of amyloid Aβ1-42 [3]: 82.4 ± 5.0%

iAβ: 11 amino acid peptide partially homologous to Aβ residues 17-21, with proline residues and charged ends (RDLPFFPVPID)
Aβ1-42 fibril reduction [11]: 51% | effect on heparan-sulfate proteoglycan-induced Aβ fibrillogenesis [12]: blocked | effect on apo E-induced promotion of Aβ fibrillogenesis [13]: blocked the promotion of Aβ fibrillogenesis | incubation time to maximum level of fibril dissolution ([14]; 40-fold molar excess of iAβ (FIG. 14B), Aβ variant not stated): 2 days | dissolution of preformed Aβ1-40 fibrils ([14]; 40-fold molar excess of iAβ, 24 h incubation): almost complete dissolution | effect on Aβ1-40 fibril formation by electron microscopy [9]: only amorphous aggregates were obtained | dissolution of preformed Aβ1-40 fibrils by electron microscopy ([9]; fibrils preformed 6 days at 37° C., then 2 days with 1:40 molar ratio Aβ:iAβ): almost completely dissolved | amyloid formed, as % of the amyloid detectable in the absence of inhibitor ([2]; 5-fold molar excess of iAβ): 33.9% | amyloid formed, as % of the amyloid detectable in the absence of inhibitor ([2]; 20-fold molar excess of iAβ): 13.7% | % of amyloid Aβ1-40 [2]: 25.5 ± 0.7% | maximum quenching of Aβ fluorescence, % of total fluorescence ([15]; at approximately 4 μM of iAβ, 25° C., 5 mM Tris pH 7.4): 12.6% | Kd ([15]; non-linear regression of binding data to a rectangular hyperbola, read-out: relative dissociation constant): 75.9 ± 6.5 nM | amyloid-like material formed by the peptide alone, electron microscopy [10]: formed no amyloid-like material | aggregation of the peptide ([10]; even at high concentrations (4 mg/ml) or after more than 30 days of incubation): did not aggregate | decrease of the area occupied by amyloid in the spleen versus animals treated without the inhibitor ([16]; 5 mg iAβ injected together with AEF after 24 h preincubation, 5 days): approximately 86.4% | amyloid in spleen by image analysis, AEF/SN + iAβ, single animal ([16]; AEF 100 μg preincubated 24 h with 5 mg peptide, sacrificed at 5 days, AEF/SN alone average 31.2): 4.35 and 3.68 and 5.32 and 3.67 | amyloid in spleen by image analysis, AEF/SN + iAβ, Average ± SE ([16]; four animals, AEF 100 μg preincubated 24 h with 5 mg peptide, 5 days, AEF/SN alone 31.2 ± 0.75): 4.26 ± 0.39 | inhibition of amyloid formation ([3]; 5-fold molar excess of iAβ over Aβ1-42, 24 h): 28.7% | inhibition of amyloid formation ([3]; 20-fold molar excess of iAβ over Aβ1-42, 24 h): 72.3% | inhibition of amyloid formation ([3]; 40-fold molar excess of iAβ over Aβ1-42, 24 h): 80.6% | % of amyloid Aβ1-42 [3]: 57.9 ± 1.3%

poly- (vinylsulfonate)
toxicity [17]: acutely toxic
